Values of other authors, collected in patent publication US4291169A, “Substituted naphthoic acids” (American Cyanamid Company, priority 1980, dated 1981).

Experiments:
collagenase [1] = details: Woolley et al. (1978); Seifter and Harper (1971)
alkali burned rabbit = details: directly applied to corneal ulcerations
collagenase [2] = details: Thromb. Res., 10(4), 605-11 (1977)
corneal ulceration = details: human
[3] = compared with cysteine

Question: With `O[C@H](CS)[C@H](O)CS` (relative stereo) [dithiothretol] as the molecule, how does the “inhibition of connective tissue destruction / collagenase (in words)” value (collagenase [1]) read?
Answer: collagenase inhibitors

Question: Which “inhibition of connective tissue destruction / collagenase (in words)” value (collagenase [1]) does the source give for `c1cnc2c(c1)ccc1cccnc12` [1,10-phenanthroline] here?
Answer: collagenase inhibitors

Question: Which “frequency of ulceration (in words)” value (alkali burned rabbit) does the source give for `O=C([O-])CN(CCN(CC(=O)[O-])CC(=O)[O-])CC(=O)[O-].[Ca+2].[Ca+2]` [Calcium ethylenediaminetetraacetate] here?
Answer: reduce the frequency of ulceration

Question: With `Cc1ccc(C(=O)Nc2ccc(S(=O)(=O)O)c3cc(S(=O)(=O)O)cc(S(=O)(=O)O)c23)cc1NC(=O)c1cccc(NC(=O)Nc2cccc(C(=O)Nc3cc(C(=O)Nc4ccc(S(=O)(=O)O)c5cc(S(=O)(=O)O)cc(S(=O)(=O)O)c45)ccc3C)c2)c1` [Suramin] as the molecule, how does the “inhibition of the activity of collagenase (in words)” value (collagenase [2]) read?
Answer: not inhibiting the action of collagenase

Question: For `CC(=O)N[C@@H](CS)C(=O)O` [acetylcysteine], which “effect in treatment of acute and chronic corneal ulceration (in words)” value (corneal ulceration) is on record?
Answer: effective in the treatment of acute and chronic corneal ulceration

Question: And the “stability (in words)” value [3]?
Answer: greater stability

Question: And the “frequency of ulceration (in words)” value (alkali burned rabbit)?
Answer: reduce the frequency of ulceration

Question: Which “effect in treatment of acute and chronic corneal ulceration (in words)” value (corneal ulceration) does the source give for `N[C@@H](CS)C(=O)O` [cysteine] here?
Answer: effective in the treatment of acute and chronic corneal ulceration

Question: What about the “inhibition of connective tissue destruction / collagenase (in words)” value (collagenase [1]) of the same molecule?
Answer: collagenase inhibitors

Question: Which “inhibition of the activity of collagenase (in words)” value (collagenase [2]) does the source give for `Cc1cc(-c2ccc(/N=N/c3c(S(=O)(=O)O)cc4cc(S(=O)(=O)O)cc(N)c4c3O)c(C)c2)ccc1/N=N/c1c(S(=O)(=O)O)cc2cc(S(=O)(=O)O)cc(N)c2c1O` [trypan blue] here?
Answer: inhibiting the activity of collagenase, or a proteinase contaminant in the collagenase preparation

Question: Which “inhibition of connective tissue destruction / collagenase (in words)” value (collagenase [1]) does the source give for sodium auriothiomalate here?
Answer: collagenase inhibitors

Question: With “α2 -macroglobulin: Naturally occurring collagnase inhibitors include the serum components, α2 -macroglobulin and β1-anticollagenase” as the molecule, how does the “inhibition of connective tissue destruction / collagenase (in words)” value (collagenase [1]) read?
Answer: Naturally occurring collagnase inhibitors
